Experimental data: paper PMC7644958, “Estimates of RelSeq, Mesh1, and SAHMex Hydrolysis of (p)ppGpp and (p)ppApp by Thin Layer Chromatography and NADP/NADH Coupled Assays” (Frontiers in Microbiology, 2020)

Target: T1, MESH1 (Homo sapiens, UniProt Q8N4P3)
T1 construct: gene HDDC3; pET28 derivative, expressed in E. coli BL21(lambda DE3); His-tag removed with thrombin
Assay: TLC hydrolysis assay (PEI-cellulose)
Assay type: biochemical
Settings: 5 mM substrate, pH 8.0, 37°C, 250 mM NaCl, 14 mM MgCl2, 6.5 mM MnCl2

T1 sequence (Q8N4P3 whole entry): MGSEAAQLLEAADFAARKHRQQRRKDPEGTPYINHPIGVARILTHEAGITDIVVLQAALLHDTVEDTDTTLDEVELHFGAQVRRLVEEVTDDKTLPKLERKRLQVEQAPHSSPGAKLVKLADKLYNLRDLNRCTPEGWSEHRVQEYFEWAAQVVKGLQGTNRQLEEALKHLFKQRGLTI

With `Nc1ncnc2c1ncn2[C@@H]1O[C@H](COP(=O)(O)OP(=O)(O)O)[C@@H](OP(=O)(O)OP(=O)(O)O)[C@H]1O` [ppApp] as the compound, how does the “TLC hydrolysis assay (PEI-cellulose)” value read?
The value was “The human MESH1 hydrolase displays similar activities as shown for Drosophila Mesh1”.

With `Nc1ncnc2c1ncn2[C@@H]1O[C@H](COP(=O)(O)OP(=O)(O)OP(=O)(O)O)[C@@H](OP(=O)(O)OP(=O)(O)O)[C@H]1O` [pppApp] as the compound, how does the “TLC hydrolysis assay (PEI-cellulose)” value read?
Its value is “The human MESH1 hydrolase displays similar activities as shown for Drosophila Mesh1”.
